Legend:
BRM = BRM (Homo sapiens, UniProt P51531); assay: ATPase catalytic activity of BRM (ADP-Glo in vitro biochemical assay)
BRG-1 = BRG-1 (Homo sapiens, UniProt P51532); assay: ATPase catalytic activity of BRG-1 (ADP-Glo in vitro biochemical assay)
BRG-1, sequence (P51532 whole entry): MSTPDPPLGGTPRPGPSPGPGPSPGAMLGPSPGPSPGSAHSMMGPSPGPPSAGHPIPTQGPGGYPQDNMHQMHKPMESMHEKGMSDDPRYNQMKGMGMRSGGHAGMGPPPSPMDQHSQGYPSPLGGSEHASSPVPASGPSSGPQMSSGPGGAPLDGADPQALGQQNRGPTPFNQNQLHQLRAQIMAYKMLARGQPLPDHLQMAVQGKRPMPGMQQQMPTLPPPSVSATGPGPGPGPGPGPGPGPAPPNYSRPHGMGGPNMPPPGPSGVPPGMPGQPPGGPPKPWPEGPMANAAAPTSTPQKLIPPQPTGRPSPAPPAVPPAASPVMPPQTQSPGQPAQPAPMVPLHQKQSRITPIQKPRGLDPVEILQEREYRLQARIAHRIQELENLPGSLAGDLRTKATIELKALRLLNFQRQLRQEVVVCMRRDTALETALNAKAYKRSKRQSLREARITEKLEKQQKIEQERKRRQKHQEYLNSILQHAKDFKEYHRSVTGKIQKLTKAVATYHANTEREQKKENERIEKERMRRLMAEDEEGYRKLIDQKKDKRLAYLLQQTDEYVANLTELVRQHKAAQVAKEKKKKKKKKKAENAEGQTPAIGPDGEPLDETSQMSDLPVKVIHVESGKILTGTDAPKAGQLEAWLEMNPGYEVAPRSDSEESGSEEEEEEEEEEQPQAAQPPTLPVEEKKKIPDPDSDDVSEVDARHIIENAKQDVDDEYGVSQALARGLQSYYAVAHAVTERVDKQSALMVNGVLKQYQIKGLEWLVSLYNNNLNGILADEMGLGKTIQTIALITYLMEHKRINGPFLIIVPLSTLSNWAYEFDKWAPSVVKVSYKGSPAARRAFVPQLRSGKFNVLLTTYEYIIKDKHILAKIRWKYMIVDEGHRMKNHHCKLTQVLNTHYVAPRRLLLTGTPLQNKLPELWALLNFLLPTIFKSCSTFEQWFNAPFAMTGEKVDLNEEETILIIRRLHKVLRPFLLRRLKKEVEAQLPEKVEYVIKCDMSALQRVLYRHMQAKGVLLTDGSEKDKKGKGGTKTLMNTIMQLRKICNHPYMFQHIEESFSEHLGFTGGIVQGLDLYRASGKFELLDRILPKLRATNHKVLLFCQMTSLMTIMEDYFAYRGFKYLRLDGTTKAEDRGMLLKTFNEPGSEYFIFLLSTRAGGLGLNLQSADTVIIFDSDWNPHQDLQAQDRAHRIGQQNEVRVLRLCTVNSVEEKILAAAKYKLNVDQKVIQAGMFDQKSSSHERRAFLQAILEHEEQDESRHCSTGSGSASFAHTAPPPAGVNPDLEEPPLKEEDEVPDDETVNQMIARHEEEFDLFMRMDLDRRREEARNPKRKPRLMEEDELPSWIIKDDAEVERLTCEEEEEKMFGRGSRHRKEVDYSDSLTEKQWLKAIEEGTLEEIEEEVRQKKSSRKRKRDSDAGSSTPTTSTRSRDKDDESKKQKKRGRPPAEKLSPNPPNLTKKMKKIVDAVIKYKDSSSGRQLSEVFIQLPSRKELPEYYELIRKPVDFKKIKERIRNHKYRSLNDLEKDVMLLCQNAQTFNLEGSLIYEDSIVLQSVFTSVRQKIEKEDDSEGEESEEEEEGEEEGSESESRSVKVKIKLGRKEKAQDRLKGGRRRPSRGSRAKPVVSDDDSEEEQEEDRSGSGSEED

BRM, sequence (P51531 whole entry): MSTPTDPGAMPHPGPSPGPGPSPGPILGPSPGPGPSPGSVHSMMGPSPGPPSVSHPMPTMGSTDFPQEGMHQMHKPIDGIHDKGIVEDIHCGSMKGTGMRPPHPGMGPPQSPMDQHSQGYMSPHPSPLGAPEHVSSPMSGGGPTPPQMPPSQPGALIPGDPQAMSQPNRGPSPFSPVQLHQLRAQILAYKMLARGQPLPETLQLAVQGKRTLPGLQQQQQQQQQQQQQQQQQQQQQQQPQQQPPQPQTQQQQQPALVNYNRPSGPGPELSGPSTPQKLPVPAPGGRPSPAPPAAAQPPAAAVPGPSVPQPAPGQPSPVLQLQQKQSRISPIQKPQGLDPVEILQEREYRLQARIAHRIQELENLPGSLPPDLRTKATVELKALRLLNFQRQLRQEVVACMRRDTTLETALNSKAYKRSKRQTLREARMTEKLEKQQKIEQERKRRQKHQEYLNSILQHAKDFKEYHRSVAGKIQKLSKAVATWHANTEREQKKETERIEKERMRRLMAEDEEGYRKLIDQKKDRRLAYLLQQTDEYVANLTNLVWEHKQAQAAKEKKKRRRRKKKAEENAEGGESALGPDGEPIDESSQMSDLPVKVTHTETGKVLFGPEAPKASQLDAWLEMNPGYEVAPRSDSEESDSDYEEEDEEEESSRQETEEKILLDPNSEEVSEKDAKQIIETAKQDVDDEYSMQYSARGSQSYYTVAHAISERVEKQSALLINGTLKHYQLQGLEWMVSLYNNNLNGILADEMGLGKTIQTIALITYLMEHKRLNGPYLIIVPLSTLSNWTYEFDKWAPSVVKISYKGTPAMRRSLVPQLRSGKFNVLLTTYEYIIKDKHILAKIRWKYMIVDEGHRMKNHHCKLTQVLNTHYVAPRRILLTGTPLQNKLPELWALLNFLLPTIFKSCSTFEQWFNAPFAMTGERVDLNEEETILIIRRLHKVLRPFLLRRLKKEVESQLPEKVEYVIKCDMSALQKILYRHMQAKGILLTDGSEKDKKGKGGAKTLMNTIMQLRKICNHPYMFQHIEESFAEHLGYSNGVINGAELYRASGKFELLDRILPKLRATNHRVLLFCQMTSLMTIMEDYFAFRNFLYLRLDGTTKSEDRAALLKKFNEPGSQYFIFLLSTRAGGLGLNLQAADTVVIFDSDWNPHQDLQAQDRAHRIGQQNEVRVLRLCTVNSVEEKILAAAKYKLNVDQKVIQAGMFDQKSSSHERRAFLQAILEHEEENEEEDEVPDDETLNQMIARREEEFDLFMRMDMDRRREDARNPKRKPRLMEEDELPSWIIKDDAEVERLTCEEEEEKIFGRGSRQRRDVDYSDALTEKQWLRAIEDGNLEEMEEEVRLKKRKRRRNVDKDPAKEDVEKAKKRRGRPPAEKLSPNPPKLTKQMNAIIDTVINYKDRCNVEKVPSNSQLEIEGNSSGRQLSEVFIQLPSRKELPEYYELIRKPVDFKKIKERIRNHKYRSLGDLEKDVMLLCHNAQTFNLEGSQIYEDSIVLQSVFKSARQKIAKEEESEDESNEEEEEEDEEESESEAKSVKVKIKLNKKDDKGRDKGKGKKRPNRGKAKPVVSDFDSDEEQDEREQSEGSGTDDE

Row | SMILES | IC50 (BRM) [nM] | BRM Max % Inhibition (BRM; Table 6) [%] | IC50 (BRG-1) [nM] | BRG1 Max % Inhibition (BRG-1; Table 6) [%] | BRM Max % Inhibition (BRM; Table 5) [%] | BRG1 Max % Inhibition (BRG-1; Table 5) [%]
1 | CCC[C@H](NC(=O)c1ccccc1)C(=O)Nc1nc(-c2ccccc2)cs1 [Compound 51, N-[(1S)-1-[(4-phenylthiazol-2-yl)carbamoyl]butyl]benzamide] | 1000 to 10000 | – | > 10000 | – | – | –
2 | CN(C)S(=O)(=O)c1cccc(C(=O)NCC(=O)Nc2cccc(-c3ccccc3)c2)c1 [Compound 40, 3-(dimethylsulfamoyl)-N-[2-oxo-2-(3-phenylanilino)ethyl]benzamide] | – | – | – | – | >50 | <30
3 | CC(=O)NCc1cccc(-c2csc(NC(=O)CNC(=O)c3cccc(S(=O)(=O)N(C)C)c3)n2)c1 [Compound 5, N-[2-[[4-[3-(acetamidomethyl)phenyl]thiazol-2-yl]amino]-2-oxo-ethyl]-3-(dimethylsulfamoyl)benzamide] | > 10000 | – | > 10000 | – | >90 | >70
4 | CSCC[C@H](NC(=O)c1ccc2[nH]cnc2c1)C(=O)Nc1nc(-c2ccccc2)cs1 [Compound 66, (S)—N-(4-(methylthio)-1-oxo-1-((4-phenylthiazol-2-yl)amino)butan-2-yl)-1H-benzo[d]imidazole-5-carboxamide] | > 10000 | – | > 10000 | – | >70 | >50
5 | CC(C)(C)c1cccc(C(=O)NCC(=O)Nc2nc(-c3ccccc3)cs2)c1 [Compound 65, 3-(tert-butyl)-N-(2-oxo-2-((4-phenylthiazol-2-yl)amino)ethyl)benzamide] | 1000 to 10000 | – | 1000 to 10000 | – | >70 | >30
6 | COc1ccc(C(=O)N[C@@H](CCSC)C(=O)Nc2nc(-c3ccccc3)cs2)cc1 [Compound 67, 4-methoxy-N-[(1S)-3-methylsulfanyl-1-[(4-phenylthiazol-2-yl)carbamoyl]propyl]benzamide] | > 10000 | – | > 10000 | – | >70 | >70
7 | CS(=O)(=O)c1cccc(C(=O)NCC(=O)Nc2nc(-c3ccc4c(c3)OCCO4)cs2)c1 [Compound 92, N-(2-((4-(2,3-dihydrobenzo[b][1,4]dioxin-6-yl)thiazol-2-yl)amino)-2-oxoethyl)-3-(methylsulfonyl)benzamide] | 100 to 1000 | >90 | 100 to 1000 | >80 | – | –
8 | CN(C)S(=O)(=O)c1cccc(C(=O)NCC(=O)Nc2nc(-c3cccc(CN)c3)cs2)c1 [Compound 10, N-[2-[[4-[3-(aminomethyl)phenyl]thiazol-2-yl]amino]-2-oxo-ethyl]-3-(dimethylsulfamoyl)benzamide] | > 10000 | – | > 10000 | – | >90 | >90
9 | CSCC[C@H](NC(=O)c1cccc(C(F)(F)F)c1)C(=O)Nc1nc(-c2ccccc2)cs1 [Compound 77, N-[(1S)-3-methylsulfanyl-1-[(4-phenylthiazol-2-yl)carbamoyl]propyl]-3-(trifluoromethyl)benzamide] | > 10000 | – | > 10000 | – | >30 | >30
10 | Nc1ccc(C(=O)NCC(=O)Nc2nc(-c3ccccc3O)cs2)cc1 [Compound 114, 4-amino-N-(2-((4-(2-hydroxyphenyl)thiazol-2-yl)amino)-2-oxoethyl)benzamide] | 100 to 1000 | >80 | 1000 to 10000 | >80 | – | –
11 | CN(C)S(=O)(=O)c1cccc(C(=O)NCC(=O)Nc2nc(-c3cccc(C(=O)O)c3)cs2)c1 [Compound 33, 3-[2-[[2-[[3-(dimethylsulfamoyl)benzoyl]amino]acetyl]amino]thiazol-4-yl]benzoic acid] | > 10000 | – | > 10000 | – | >80 | >80
12 | Nc1ccc(C(=O)NCC(=O)Nc2nc(-c3cccc(-c4ccnc(N5CCCCS5(=O)=O)c4)c3)cs2)cc1 [Compound 203, 4-amino-N-[2-[[4-[3-[2-(1,1-dioxothiazinan-2-yl)-4-pyridyl]phenyl]thiazol-2-yl]amino]-2-oxo-ethyl]benzamide] | 100 to 1000 | >80 | 100 to 1000 | >80 | – | –
13 | CN(C)Cc1ccc(-c2cccc(-c3csc(NC(=O)CNC(=O)c4ccc(N)cc4)n3)c2)cc1 [Compound 145, 4-amino-N-(2-((4-(4′-((dimethylamino)methyl)-[1,1′-biphenyl]-3-yl)thiazol-2-yl)amino)-2-oxoethyl)benzamide] | 100 to 1000 | >90 | 100 to 1000 | >90 | – | –
14 | CN(C)C1CCCN(c2cc(-c3cccc(-c4csc(NC(=O)CNC(=O)c5ccc(N)cc5)n4)c3)ccn2)C1 (stereo not shown) [Compound 225, 4-amino-N-[2-[[4-[3-[2-[3-(dimethylamino)-1-piperidyl]-4-pyridyl]phenyl]thiazol-2-yl]amino]-2-oxo-ethyl]benzamide] | 100 to 1000 | >80 | 100 to 1000 | >90 | – | –
15 | COC(=O)N1CCC=C(c2csc(NC(=O)CNC(=O)c3ccc(N)cc3)n2)C1 [Compound 110, methyl 3-(2-(2-(4-aminobenzamido)acetamido)thiazol-4-yl)-5,6-dihydropyridine-1(2H)-carboxylate] | 100 to 1000 | >80 | 1000 to 10000 | >80 | – | –

The next lines start with the values.

Row | IC50 (BRM) [nM] | BRM Max % Inhibition (BRM; Table 6) [%] | IC50 (BRG-1) [nM] | BRG1 Max % Inhibition (BRG-1; Table 6) [%] | BRM Max % Inhibition (BRM; Table 5) [%] | BRG1 Max % Inhibition (BRG-1; Table 5) [%] | SMILES
16 | 100 to 1000 | >90 | 100 to 1000 | >90 | – | – | CC(C)(N)Cn1ccc(-c2cccc(-c3csc(NC(=O)CNC(=O)c4ccc(N)cc4)n3)c2)n1 [Compound 241, 4-amino-N-[2-[[4-[3-[1-(2-amino-2-methyl-propyl)pyrazol-3-yl]phenyl]thiazol-2-yl]amino]-2-oxo-ethyl]benzamide]
17 | < 100 | >95 | < 100 | >95 | – | – | CSCC[C@H](NC(=O)c1ccc(N)cc1)C(=O)Nc1nc(-c2cccc(-c3ccnc(C)c3)c2)cs1 [Compound 214, (S)-4-amino-N-(1-((4-(3-(2-methylpyridin-4-yl)phenyl)thiazol-2-yl)amino)-4-(methylthio)-1-oxobutan-2-yl)benzamide]
18 | 100 to 1000 | >90 | 1000 to 10000 | >90 | – | – | CSCC[C@H](NC(=O)c1ccc(N)cc1)C(=O)Nc1nc(-c2cccc(-c3ccc(CN)cc3)c2)cs1 [Compound 118, (S)-4-amino-N-(1-((4-(4′-(aminomethyl)-[1,1′-biphenyl]-3-yl)thiazol-2-yl)amino)-4-(methylthio)-1-oxobutan-2-yl)benzamide]
19 | < 100 | >95 | < 100 | >95 | – | – | O=C(CNC(=O)c1ccc2c(c1)CCN2)Nc1nc(-c2cccc(-c3ccncc3)c2)cs1 [Compound 95, N-(2-oxo-2-((4-(3-(pyridin-4-yl)phenyl)thiazol-2-yl)amino)ethyl)indoline-5-carboxamide]
20 | 100 to 1000 | >95 | 100 to 1000 | >80 | – | – | Nc1ccc(C(=O)NCC(=O)Nc2nc(-c3cccc(-c4ccnc(N5CCCC(N)C5)c4)c3)cs2)cc1 (stereo not shown) [Compound 221, 4-amino-N-[2-[[4-[3-[2-(3-amino-1-piperidyl)-4-pyridyl]phenyl]thiazol-2-yl]amino]-2-oxo-ethyl]benzamide]
21 | 100 to 1000 | >80 | 100 to 1000 | >80 | – | – | Nc1ccc(C(=O)NCC(=O)Nc2nc(-c3cccc(-c4ccn(CC(F)(F)F)n4)c3)cs2)cc1 [Compound 151, 4-amino-N-(2-oxo-2-((4-(3-(1-(2,2,2-trifluoroethyl)-1H-pyrazol-3-yl)phenyl)thiazol-2-yl)amino)ethyl)benzamide]
22 | 100 to 1000 | >90 | 100 to 1000 | >80 | – | – | Nc1ccc(C(=O)NCC(=O)Nc2nc(-c3cccc(-c4cnn(CC(=O)O)c4)c3)cs2)cc1 [Compound 176, 2-(4-(3-(2-(2-(4-aminobenzamido)acetamido)thiazol-4-yl)phenyl)-1H-pyrazol-1-yl)acetic acid]
23 | 100 to 1000 | >95 | 100 to 1000 | >95 | – | – | COc1cc(-c2cccc(-c3csc(NC(=O)CNC(=O)c4ccc(N)cn4)n3)c2)ccn1 [Compound 199, 5-amino-N-[2-[[4-[3-(2-methoxy-4-pyridyl)phenyl]thiazol-2-yl]amino]-2-oxo-ethyl]pyridine-2-carboxamide]
24 | 100 to 1000 | >90 | 100 to 1000 | >80 | – | – | NC[C@H]1CC[C@@H](c2cccc(-c3csc(NC(=O)CNC(=O)c4ccc(N)cc4)n3)c2)CC1 [Compound 175, 4-amino-N-(2-((4-(3-((1s,4s)-4-(aminomethyl)cyclohexyl)phenyl)thiazol-2-yl)amino)-2-oxoethyl)benzamide]
25 | < 100 | >90 | 100 to 1000 | >95 | – | – | CNC(=O)Cn1ccc(-c2cccc(-c3csc(NC(=O)CNC(=O)c4ccc(N)cc4)n3)c2)n1 [Compound 216, 4-amino-N-[2-[[4-[3-[1-[2-(methylamino)-2-oxo-ethyl]pyrazol-3-yl]phenyl]thiazol-2-yl]amino]-2-oxo-ethyl]benzamide]
26 | < 100 | >95 | < 100 | >95 | – | – | CSCC[C@H](NC(=O)c1ccc(N)cc1)C(=O)Nc1nc(-c2cccc(-c3nnco3)c2)cs1 [Compound 128, (S)-N-(1-((4-(3-(1,3,4-oxadiazol-2-yl)phenyl)thiazol-2-yl)amino)-4-(methylthio)-1-oxobutan-2-yl)-4-aminobenzamide]

Reference: patent US11497752B2, “Compounds and uses thereof” (Foghorn Therapeutics Inc., priority 2018, dated 2022)
